According to patent US20090155228A1, “COMPOUNDS, KITS AND METHODS FOR CONFERRING CYTOPROTECTION” (priority 2006, published 2009):
“And” between values parts separate entries of the source, which are not always exact repeats. Identical values can stand only once.

Columns and labels:
ABCG2 [1] = assay: RT-Q-PCR ABCG2 transcript level in monocyte-derived DCs; format: cell-based, human
Description: (§1) Cell culture and ligand treatment—Monocytes (98% CD14+) were obtained from buffy coats by Ficoll gradient centrifugation and immunomagnetic cell separation using anti-CD14-conjugated microbeads (VarioMACS; Miltenyi Biotec). […] Cells were cultured for 5 or 6 days (unless otherwise indicated) and the IL-4 and GM-CSF addition was repeated at day 3. Ligands or vehicle control (50% DMSO/ethanol) were added to the cell culture from the first day on. MonoMac-6 (MM6) cells were a kind gift of E. Duda (Biological Research Center, Szeged, Hungary).

FABP4 [2] = assay: RT-Q-PCR FABP4 transcript level in monocyte-derived DCs; format: cell-based, human
Description: (§2) Cell culture and ligand treatment—Monocytes (98% CD14+) were obtained from buffy coats by Ficoll gradient centrifugation and immunomagnetic cell separation using anti-CD14-conjugated microbeads (VarioMACS; Miltenyi Biotec). DCs were prepared as described previously (Szatmari, I. et al. (2004) Immunity 21, 95-106). In brief, monocytes were resuspended into six-well culture dishes at a density of 1.5×10^6 cells/ml and cultured in RPMI 1640 supplemented with 10% FBS (Invitrogen), containing 800 U/ml GM-CSF (Leucomax) and 500 U/ml IL-4 (Peprotech). Cells were cultured for 5 or 6 days (unless otherwise indicated) and the IL-4 and GM-CSF addition was repeated at day 3. Ligands or vehicle control (50% DMSO/ethanol) were added to the cell culture from the first day on. MonoMac-6 (MM6) cells were a kind gift of E. Duda (Biological Research Center, Szeged, Hungary). These cells were cultured in RPMI 1640 supplemented with 10% FBS.

FABP4 [3] = assay: RT-Q-PCR FABP4 transcript in MM6 cells; format: cell-based; settings: after RSG alone or with LG268, 24 h
Description: (§3) RNA interference—For siRNA delivery the AMAXA's Nucleofection technology (AMAXA) was applied. MM6 cells (1×10^6) were harvested and electroporated with 1.5 μg siRNA using the Cell line nucleofector kit V (AMAXA), program v-001. Applicants used a previously described PPARg specific siRNA sequence (Kelly, D. et al. (2004) Nat Immunol 5, 104-112): […]-d(TT) (SEQ ID NO. 10). As a negative control, Silencer Negative Control 1 siRNA (Ambion) was used.
as §2

PPARg = assay: RT-Q-PCR PPARg transcript in MM6 cells after RNA interference; format: cell-based; settings: MM6 cells electroporated with 1.5 μg siRNA
Description: as §3, §2

ABCG2 [4] = assay: RT-Q-PCR ABCG2 transcript in MM6 cells; format: cell-based; settings: after RSG alone or with LG268, 24 h
Description: as §3, §2

PPARd = assay: RT-Q-PCR PPARd transcript in MM6 cells after RNA interference; format: cell-based; settings: MM6 cells electroporated with 1.5 μg siRNA
Description: as §3, §2

ABCG2 [5] = assay: Mitoxantrone uptake in DCs by FACS; format: cell-based, human; settings: 30 min
Description: Measurement of mitoxantrone uptake by FACS analyses—Cells were resuspended in phenol red free HPMI medium containing the desired fluorescent compound (20 μM mitoxantrone) with or without KO143 (1 μM) and incubated at 37° C. for 30 min, Thereafter the cells were washed with cold HPMI and subjected to flow cytometric analyses. The cells were assessed for fluorescence intensity with a FACSCalibur cytometer (Beckton Dickinson).

DCs = settings: MTT
Description: Cytotoxicity assay—Cytotoxicity assays were carried out using the MTT assay. Briefly, cells were plated in 96-well plates at a density of 10^5 cells per well. Mitoxantrone at various concentrations with or without KO143 was added to DCs and cells were incubated at 37° C. for 48 h. After incubation, cytotoxicity was assessed by using the MTT assay.

ABCG2 [6] = assay: Flow cytometry of ABCG2 cell surface expression in DCs (5D3 antibody); format: cell-based, human; settings: DCs treated with RSG plus GW9662
Description: (§4) FACS analysis—Cell staining was performed using FITC- or PE-conjugated monoclonal antibodies: Labeled antibodies for flow cytometry included anti-CD1a-PE, CD1d-PE, CD80-PE, CD86-PE and isotype-matched controls (BD PharMingen). For the ABCG2 detection cells were fixed with 1% paraformaldehyde for 5 min, then incubated with unlabeled anti-ABCG2 (5D3) or isotype-matched control (R and D system) antibody for 30 min at 37° C., followed by staining with FITC-labeled anti-mouse antibody (BD PharMingen). The fluorescence of labeled cells was measured by using a FACSCalibur flow cytometer (Beckton Dickinson).

ABCA1 = assay: RT-Q-PCR ABCA1 mRNA level in DCs; format: cell-based, human; settings: DCs cultured 24 h, 1 μM RSG or 1 μM T0901317
Description: as §1

ABCG1 = assay: RT-Q-PCR ABCG1 mRNA level in DCs; format: cell-based, human; settings: DCs cultured 24 h, 1 μM RSG or 1 μM T0901317
Description: as §1

[7] = patients treated with 4 mg RSG; cited from earlier work
CD1d = assay: FACS cell surface expression of CD1d on DCs; format: cell-based, human; settings: PPARg activated DCs (2.5 μM RSG) with 1 μM KO143
Description: as §4

CD86 = assay: FACS cell surface expression of CD86 on DCs; format: cell-based, human; settings: PPARg activated DCs (2.5 μM RSG) with 1 μM KO143
Description: as §4

CD1a [8] = assay: FACS cell surface expression of CD1a on DCs; format: cell-based, human; settings: PPARg activated DCs (2.5 μM RSG) with 1 μM KO143
Description: as §4

CD1a [9] = assay: RT-Q-PCR CD1a transcript level in DCs; format: cell-based, human; settings: PPARg activated DCs with 1 μM KO143; relative to cyclophilin A
Description: as §2

ABCG2 [10] = assay: Hoechst 33342 retention in DCs by CLSM and FACS; format: cell-based, human; settings: stimulated DCs, 1 μM KO143
Description: Measurement of Hoechst retention by CLSM and FACS—DCs were plated on Lab-Tek coverslip chambers. Cells were incubated with 0.5 μg/ml Hoechst 33342 for 1 h at 37° C. with or without KO143 (1 μM), then subjected to microscopic analysis. Hoechst fluorescence was measured on a Zeiss LSM 510 confocal microscope with a Plan-Apochromat 60× (NA 1.4) oil immersion objective using maximal detection pinhole diameter (1 mm) to get signal from the whole depth of the nucleus. Hoechst was excited by the 351 and 364 nm lines of an Ar ion laser, emission was measured through a 385-to-470 nm bandpass filter.
Hoechst content was also measured on a Becton Dickinson FACSVantage flow cytometer. Hoechst fluorescence was excited by the 351 and 364 nm lines and the blue and red Hoechst signals were detected through 402-to-446 nm and >650 nm filters, respectively.

CD80 = assay: FACS cell surface expression of CD80 on DCs; format: cell-based, human; settings: PPARg activated DCs (2.5 μM RSG) with 1 μM KO143
Description: as §4

[11] = target: T1, PPARgamma:RXRalpha heterodimer (Mus musculus (PPARg); Homo sapiens …, UniProt P37238;P19793 P37238:1-505,P19793:1-462); assay: competition; cold mutant at x10 and x20 does not compete; settings: tags: T7 Quick TNT, full-length
[12] = target: T1, PPARgamma:RXRalpha heterodimer; assay: EMSA; supershift with both antibodies; some aspecific binding also in blank; settings: tags: T7 Quick TNT, full-length; label: 32P
[13] = target: T1, PPARgamma:RXRalpha heterodimer; assay: EMSA; supershift with anti-RXRa and anti-PPARg; competed by cold WT; settings: tags: T7 Quick TNT, full-length; label: 32P
[14] = ligand treated monocyte-derived DCs: 2.5 μM RSG, 100 nM GW347845X, 1 μM troglitazone, relative to 36B4

COC(=O)c1ccccc1N[C@@H](Cc1ccc(OCCc2nc(-c3ccccc3)oc2C)cc1)C(=O)O [GW347845X]
ABCG2 mRNA expression (ABCG2 [1]; [14]): induced
FABP4 mRNA expression (FABP4 [2]; [14]): induced

GCCCTTCACTACTGTTGAC-d(TT) (sense GCCCTTCACTACTGTTGACTT; 3' dTdT overhang, further chemistry not given here) [PPARg-specific siRNA]
Induction of FABP4 in siRNA treated MM6 cells (FABP4 [3]): impaired induction
Expression of endogenous PPARg (PPARg): effectively inhibited
Induction of ABCG2 in siRNA treated MM6 cells (ABCG2 [4]): impaired induction
Expression of PPARd (PPARd): did not interfere

O=C1c2c(O)ccc(O)c2C(=O)c2c(NCCNCCO)ccc(NCCNCCO)c21 [mitoxantrone]
Mitoxantrone accumulation in control DCs (ABCG2 [5]; 20 μM mitoxantrone): rapid
Cell viability of control DCs (DCs; mitoxantrone 1.25 or 2.5 μg/ml, 48 h): induced cell death

O=C(Nc1ccccc1)c1cc([N+](=O)[O-])ccc1Cl [GW9662]
Effect of PPARg antagonist on RSG induction of ABCG2 mRNA (ABCG2 [1]; DCs, 2.5 μM RSG with 5 μM GW9662): abolished the induction of ABCG2
Cell surface expression of ABCG2 protein with PPARg antagonist (ABCG2 [6]): reduced

O=S(=O)(c1ccccc1)N(CC(F)(F)F)c1ccc(C(O)(C(F)(F)F)C(F)(F)F)cc1 [T0901317]
ABCA1 mRNA expression (ABCA1): profound upregulation
ABCG2 mRNA expression with LXR specific agonist (ABCG2 [1]; DCs cultured 24 h, 1 μM T0901317): did not affect
ABCG1 mRNA expression (ABCG1): profound upregulation

CN(CCOc1ccc(CC2SC(=O)NC2=O)cc1)c1ccccn1 (centres unmarked) [rosiglitazone]
Plasma concentration [7]: 50-350 ng/ml and 100-1000 nM

COc1ccc2c3c([nH]c2c1)[C@H](CC(C)C)N1C(=O)[C@H](CCC(=O)OC(C)(C)C)NC(=O)[C@@H]1C3 [KO143]
Cell surface expression of CD1d with ABCG2 inhibitor (CD1d): did not change
Cell surface expression of CD86 with ABCG2 inhibitor (CD86): did not change
Mitoxantrone extrusion by ABCG2 in activated cells (ABCG2 [5]; 1 μM KO143, 20 μM mitoxantrone): fully inhibited
Transcript level of FABP4 with ABCG2 inhibitor (FABP4 [2]; PPARg activated DCs with 1 μM KO143, relative to cyclophilin A): did not change
Cell surface expression of CD1a with ABCG2 inhibitor (CD1a [8]): slightly decreased
CD1a mRNA expression with ABCG2 inhibitor (CD1a [9]): reduced
Effect of ABCG2 inhibitor on reduced Hoechst dye accumulation (ABCG2 [10]): abolished the effect of the PPARg ligand treatment
Cell surface expression of CD80 with ABCG2 inhibitor (CD80): did not change
Effect of ABCG2 inhibitor on protection against mitoxantrone (DCs; RSG treated DCs with KO143, 48 h): removed this protective effect

B1: ABCG2 element B mut (dsDNA)
DNA 1: GGGCACATTGAGAAAGGTTAAGTGA
DNA 2: TCACTTAACCTTTCTCAATGTGCCC
binding result [11]: no binding

B2: ABCG2 element A mut (dsDNA)
DNA 1: GGGGTGGGCGAGAGAGGGCAATGGC
DNA 2: GCCATTGCCCTCTCTCGCCCACCCC
binding result [11]: no binding

B3: ABCG2 element C mut (dsDNA)
DNA 1: GGTCATTTCGAGAGATGTTAGATGA
DNA 2: TCATCTAACATCTCTCGAAATGACC
binding result [11]: no binding

B4: ABCG2 element B WT (dsDNA)
DNA 1: GGGCACAAGGTTAAAGGTTAAGTGA
DNA 2: TCACTTAACCTTTAACCTTGTGCCC
binding result [12]: binds

B5: ABCG2 element C WT (dsDNA)
DNA 1: GGTCATTAGGTCAGATGTTAGATGA
DNA 2: TCATCTAACATCTGACCTAATGACC
binding result [12]: binds

B6: ABCG2 element A WT (dsDNA)
DNA 1: GGGGTGGAGGGCAGAGGGCAATGGC
DNA 2: GCCATTGCCCTCTGCCCTCCACCCC
binding result [13]: binds
